Tests used:
[1] = target: T1, Adrenergic β2 (H292 cells) (Homo sapiens, UniProt P07550); assay: Adrenergic β2 Mediated cAMP Production, single concentration 1 μM; type: cell-based; conditions: NCI-H292, 1 μM compound, percentage of the maximum response generated by 1E-07M formoterol, read-out: β2 (% effect at 1 μM)
T1 construct: endogenous in cells; host or cells: H292 cells
Method: The following experimental procedure was used to measure the beta-2% effect at 1 μM for the compounds of Examples 116-263. Adrenergic β2 Mediated cAMP Production Cell Preparation
H292 cells are grown in 225 cm2 flasks incubator at 37° C., 5% CO2 in RPMI medium containing 10% (v/v) FBS (foetal bovine serum) and 2 mM L-glutamine.
Compounds were prepared by an initial first dilution into DMSO to give 1 mM stock concentration. This was followed by a 1 in 10 dilution of the stock concentration (10 μl stock compound+90 μl DMSO) to give 0.1 mM compound.
A compound addition plate was prepared by making a further 1 in 25 dilution in assay buffer (HBSS solution containing 10 mM HEPES pH7.4 and 5 mM glucose) containing 4% dimethylsulfoxide. The final compound concentration in assay is 1 μM.
Adherent H292 cells are removed from tissue culture flasks by treatment with Accutase™ cell detachment solution for 15 minutes. Flasks are incubated for 15 minutes in a humidified incubator at 37° C., 5% CO2. Detached cells are re-suspended in RPMI media (containing 10% (v/v) FBS and 2 mM L-glutamine) at 0.1×10^6 cells per mL. 10000 cells in 100 μL are added to each well of a tissue-culture-treated 96-well plate and the cells incubated overnight in a humidified incubator at 37° C., 5% CO2. The culture media is removed and cells are washed twice with 100 μL assay buffer and replaced with 50 μL assay buffer (HBSS solution containing 10 mM HEPES pH7.4 and 5 mM glucose). Cells are rested at room temperature for 20 minutes after which time 25 μL of rolipram (1.2 mM made up in assay buffer) is added. Cells are incubated with rolipram for 10 minutes after which time 25 μl test compounds are added and the cells are incubated for 60 minutes at room temperature. The final rolipram concentration in the assay is 300 μM and final vehicle concentration is 1% (v/v) dimethylsulphoxide. The reaction is stopped by removing supernatants, washing once with 100 μL assay buffer and replacing with 50 μL lysis buffer. The cell monolayer is frozen at −80° C. for 30 minutes (or overnight).
AlphaScreen™ cAMP Detection
The concentration of cAMP (cyclic adenosine monophosphate) in the cell lysate is determined using AlphaScreen™ methodology. The frozen cell plate is thawed for 20 minutes on a plate shaker then 10 μL of the cell lysate is transferred to a 96-well white plate. 40 μL of mixed AlphaScreen™ detection beads (containing equal volumes of donor beads (pre-incubated with biotinylated cAMP in the dark for 30 minutes) and acceptor beads is added to each well and the plate incubated at room temperature for 3 hours in the dark. The AlphaScreen™ signal is measured using an EnVision spectrophotometer (Perkin-Elmer Inc.) with the recommended manufacturer's settings. Concentration of cAMP produced per well were calculated with reference to the cAMP standard curve determined in the same experiment and expressed as a percentage of the maximum response generated by 1E-07M formoterol.

[2] = target: T2, human muscarinic acetylcholine M3 receptor (M3-ACh) (Homo sapiens, UniProt P20309); assay: Muscarinic 3 Receptor Binding Assay, % inhibition specific binding at 1 μM; conditions: 1 μM compound, % inhibition specific [3H]-NMS binding
T2 construct: expressed in transfected cells; host or cells: CHO-K1 (Chinese Hamster Ovary) cell membranes
Method: The following experimental procedure was used to determine the M3% inhibition at 1 μM of the compounds of Examples 116-263.
Muscarinic 3 Receptor Binding Assay
The activity (% inhibition specific binding) of compounds -on the M3 receptor is determined by competition binding of [^3H]N-methyl scopolamine (NMS) to CHO-K1 (Chinese Hamster Ovary) cell membranes expressing the human muscarinic acetylcholine M3 receptor (M3-ACh) in a scintillation proximity assay (SPA) format.
SPA beads are precoated with membranes and then incubated at 2 mg of beads per well with 1 μM compound of the invention, [^3H]NMS at 0.1 nM, quarter Kd (experimentally determined dissociation constant) and assay buffer (20 mM HEPES pH 7.4 containing 5 mM MgCl2). The assay is conducted in a final volume of 200 μL, in the presence of 1% (v/v) dimethyl sulphoxide (DMSO). Total binding of [^3H]NMS is determined in the absence of competing compound and non-specific binding of [^3H]NMS is determined in the presence of 1 μM atropine. The plates are incubated for 16 hours at room temperature and then read on Wallac Microbeta™ using a normalised ^3H protocol. The compound activity at 1 defined as % inhibition specific [^3H]-NMS binding, is determined.

T1 sequence (P07550 whole entry): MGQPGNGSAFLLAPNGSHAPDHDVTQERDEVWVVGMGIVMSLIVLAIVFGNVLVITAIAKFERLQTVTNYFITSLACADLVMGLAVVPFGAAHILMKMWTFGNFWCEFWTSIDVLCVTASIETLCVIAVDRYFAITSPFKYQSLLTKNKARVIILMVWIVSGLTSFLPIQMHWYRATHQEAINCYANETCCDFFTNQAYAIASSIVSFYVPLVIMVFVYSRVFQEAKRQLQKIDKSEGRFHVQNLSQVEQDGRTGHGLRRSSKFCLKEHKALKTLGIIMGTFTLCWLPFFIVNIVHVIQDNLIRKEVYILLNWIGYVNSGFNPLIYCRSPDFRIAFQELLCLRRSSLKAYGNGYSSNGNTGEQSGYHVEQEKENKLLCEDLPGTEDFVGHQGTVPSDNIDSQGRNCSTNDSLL
T2 sequence (P20309 whole entry): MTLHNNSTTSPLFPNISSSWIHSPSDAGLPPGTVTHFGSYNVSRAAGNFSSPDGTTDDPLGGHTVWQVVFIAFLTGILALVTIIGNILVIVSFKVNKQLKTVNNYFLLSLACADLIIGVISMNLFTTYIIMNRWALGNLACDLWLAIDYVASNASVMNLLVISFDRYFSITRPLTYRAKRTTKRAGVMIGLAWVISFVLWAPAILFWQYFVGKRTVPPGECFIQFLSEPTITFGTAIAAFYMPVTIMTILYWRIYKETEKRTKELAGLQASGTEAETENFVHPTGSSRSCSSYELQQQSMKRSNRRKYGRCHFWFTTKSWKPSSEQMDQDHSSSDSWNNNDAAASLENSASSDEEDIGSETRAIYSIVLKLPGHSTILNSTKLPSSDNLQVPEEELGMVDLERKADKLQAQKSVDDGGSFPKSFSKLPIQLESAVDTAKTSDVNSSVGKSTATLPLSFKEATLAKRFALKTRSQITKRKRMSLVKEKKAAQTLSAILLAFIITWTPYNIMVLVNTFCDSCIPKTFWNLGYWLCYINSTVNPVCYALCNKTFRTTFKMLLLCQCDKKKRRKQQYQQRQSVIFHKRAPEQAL

Compound | activation at 1 µM [1] [%] | inhibition at 1 µM [2] [%]
O=C(CCc1nc2ccccc2[nH]1)N1CCOC2(CCN(Cc3cc(F)cc(CCNC[C@H](O)c4ccc(O)c5[nH]c(=O)sc45)c3)CC2)C1 [Example 116, (R)-7-(2-(3-((4-(3-(1H-benzo[d]imidazol-2-yl)propanoyl)-1-oxa-4,9-diazaspiro[5.5]undecan-9-yl)methyl)-5-fluorophenethylamino)-1-hydroxyethyl)-4-hydroxybenzo[d]thiazol-2(3H)-one] | 111 | 3
COc1ccccc1CC(=O)N1CCOC2(CCN(Cc3cc(F)cc(CCNC[C@H](O)c4ccc(O)c5[nH]c(=O)sc45)c3)CC2)C1 [Example 117, (R)-7-(2-(3-fluoro-5-((4-(2-(2-methoxyphenyl)acetyl)-1-oxa-4,9-diazaspiro[5.5]undecan-9-yl)methyl)phenethylamino)-1-hydroxyethyl)-4-hydroxybenzo[d]thiazol-2(3H)-one] | 101 | 22
O=C(c1ccc2ccccc2n1)N1CCOC2(CCN(Cc3cc(F)cc(CCNC[C@H](O)c4ccc(O)c5[nH]c(=O)sc45)c3)CC2)C1 [Example 119, (R)-7-(2-(3-fluoro-5-((4-(quinoline-2-carbonyl)-1-oxa-4,9-diazaspiro[5.5]undecan-9-yl)methyl)phenethylamino)-1-hydroxyethyl)-4-hydroxybenzo[d]thiazol-2(3H)-one] | 100 | 60
O=C(c1cc2ccccc2[nH]1)N1CCOC2(CCN(Cc3cc(F)cc(CCNC[C@H](O)c4ccc(O)c5[nH]c(=O)sc45)c3)CC2)C1 [Example 120, (R)-7-(2-(3-((4-(1H-indole-2-carbonyl)-1-oxa-4,9-diazaspiro[5.5]undecan-9-yl)methyl)-5-fluorophenethylamino)-1-hydroxyethyl)-4-hydroxybenzo[d]thiazol-2(3H)-one] | 101 | 82
Cc1ccccc1C(=O)N1CCOC2(CCN(Cc3cc(F)cc(CCNC[C@H](O)c4ccc(O)c5[nH]c(=O)sc45)c3)CC2)C1 [Example 121, (R)-7-(2-(3-fluoro-5-((4-(2-methylbenzoyl)-1-oxa-4,9-diazaspiro[5.5]undecan-9-yl)methyl)phenethylamino)-1-hydroxyethyl)-4-hydroxybenzo[d]thiazol-2(3H)-one] | 85 | 28
Cc1cccc(C(=O)N2CCOC3(CCN(Cc4cc(F)cc(CCNC[C@H](O)c5ccc(O)c6[nH]c(=O)sc56)c4)CC3)C2)c1 [Example 122, (R)-7-(2-(3-fluoro-5-((4-(3-methylbenzoyl)-1-oxa-4,9-diazaspiro[5.5]undecan-9-yl)methyl)phenethylamino)-1-hydroxyethyl)-4-hydroxybenzo[d]thiazol-2(3H)-one] | 82 | 86
O=C(Cc1ccc(-c2ccccc2)cc1)N1CCOC2(CCN(Cc3cc(F)cc(CCNC[C@H](O)c4ccc(O)c5[nH]c(=O)sc45)c3)CC2)C1 [Example 123, (R)-7-(2-(3-((4-(2-(biphenyl-4-yl)acetyl)-1-oxa-4,9-diazaspiro[5.5]undecan-9-yl)methyl)-5-fluorophenethylamino)-1-hydroxyethyl)-4-hydroxybenzo[d]thiazol-2(3H)-one] | 97 | 62
Cc1ccsc1C(=O)N1CCOC2(CCN(Cc3cc(F)cc(CCNC[C@H](O)c4ccc(O)c5[nH]c(=O)sc45)c3)CC2)C1 [Example 125, (R)-7-(2-(3-fluoro-5-((4-(3-methylthiophene-2-carbonyl)-1-oxa-4,9-diazaspiro[5.5]undecan-9-yl)methyl)phenethylamino)-1-hydroxyethyl)-4-hydroxybenzo[d]thiazol-2(3H)-one] | 97 | 52
O=C(Cc1ccsc1)N1CCOC2(CCN(Cc3cc(F)cc(CCNC[C@H](O)c4ccc(O)c5[nH]c(=O)sc45)c3)CC2)C1 [Example 126, (R)-7-(2-(3-fluoro-5-((4-(2-(thiophen-3-yl)acetyl)-1-oxa-4,9-diazaspiro[5.5]undecan-9-yl)methyl)phenethylamino)-1-hydroxyethyl)-4-hydroxybenzo[d]thiazol-2(3H)-one] | 98 | 50
Cc1ccoc1C(=O)N1CCOC2(CCN(Cc3cc(F)cc(CCNC[C@H](O)c4ccc(O)c5[nH]c(=O)sc45)c3)CC2)C1 [Example 127, (R)-7-(2-(3-fluoro-5-((4-(3-methylfuran-2-carbonyl)-1-oxa-4,9-diazaspiro[5.5]undecan-9-yl)methyl)phenethylamino)-1-hydroxyethyl)-4-hydroxybenzo[d]thiazol-2(3H)-one] | 97 | 78
O=C(CCc1c[nH]c2ccccc12)N1CCOC2(CCN(Cc3cc(F)cc(CCNC[C@H](O)c4ccc(O)c5[nH]c(=O)sc45)c3)CC2)C1 [Example 128, (R)-7-(2-(3-((4-(3-(1H-indol-3-yl)propanoyl)-1-oxa-4,9-diazaspiro[5.5]undecan-9-yl)methyl)-5-fluorophenethylamino)-1-hydroxyethyl)-4-hydroxybenzo[d]thiazol-2(3H)-one] | 112 | 14
O=C(N1CCOC2(CCN(Cc3cc(F)cc(CCNC[C@H](O)c4ccc(O)c5[nH]c(=O)sc45)c3)CC2)C1)C1(c2ccccc2)CCCC1 [Example 129, (R)-7-(2-(3-fluoro-5-((4-(1-phenylcyclopentanecarbonyl)-1-oxa-4,9-diazaspiro[5.5]undecan-9-yl)methyl)phenethylamino)-1-hydroxyethyl)-4-hydroxybenzo[d]thiazol-2(3H)-one] | 90 | 20
Cc1occc1C(=O)N1CCOC2(CCN(Cc3cc(F)cc(CCNC[C@H](O)c4ccc(O)c5[nH]c(=O)sc45)c3)CC2)C1 [Example 131, (R)-7-(2-(3-fluoro-5-((4-(2-methylfuran-3-carbonyl)-1-oxa-4,9-diazaspiro[5.5]undecan-9-yl)methyl)phenethylamino)-1-hydroxyethyl)-4-hydroxybenzo[d]thiazol-2(3H)-one] | 95 | 41
O=C(c1ccc2ncsc2c1)N1CCOC2(CCN(Cc3cc(F)cc(CCNC[C@H](O)c4ccc(O)c5[nH]c(=O)sc45)c3)CC2)C1 [Example 132, (R)-7-(2-(3-((4-(benzo[d]thiazole-6-carbonyl)-1-oxa-4,9-diazaspiro[5.5]undecan-9-yl)methyl)-5-fluorophenethylamino)-1-hydroxyethyl)-4-hydroxybenzo[d]thiazol-2(3H)-one] | 92 | 85
Cc1cccc2nc(C(=O)N3CCOC4(CCN(Cc5cc(F)cc(CCNC[C@H](O)c6ccc(O)c7[nH]c(=O)sc67)c5)CC4)C3)cn12 [Example 133, (R)-7-(2-(3-fluoro-5-((4-(5-methylimidazo[1,2-a]pyridine-2-carbonyl)-1-oxa-4,9-diazaspiro[5.5]undecan-9-yl)methyl)phenethylamino)-1-hydroxyethyl)-4-hydroxybenzo[d]thiazol-2(3H)-one] | 110 | 56

From US8148373B2, “Compounds” (AstraZeneca AB, priority 2008, dated 2012)
